Common to all, as to assay type: in vivo
For data set [1], the system named is Cabbage Looper (CL) (Trichoplusia ni). The experiment in a line: Bioassay on Cabbage Looper (CL), 128-well diet tray assay. Particulars: 168 h, Table ABC, 50 μg/cm^2 on artificial diet, second instar larvae, five to seven days, 25° C., read-out: CL % Control (or Mortality) rating. On the procedure:
(§1) Certain molecules disclosed in this document were tested against BAW and CL using procedures described in the following examples. In the reporting of the results, the “BAW & CL Rating Table” was used (See Table Section).
Bioassays on CL were conducted using a 128-well diet tray assay. One to five second instar CL larvae were placed in each well (3 mL) of the diet tray that had been previously filled with 1 mL of artificial diet to which 50 μg/cm^2 of the test compound (dissolved in 50 μL of 90:10 acetone-water mixture) had been applied (to each of eight wells) and then allowed to dry. Trays were covered with a clear self-adhesive cover, and held at 25° C., 14:10 light-dark for five to seven days. Percent mortality was recorded for the larvae in each well; activity in the eight wells was then averaged. The results are indicated in the table entitled “Table ABC: Assay Results” and “Table ABCD: Assay Results” (See Table Section).

The subject of data set [2] is Beet Armyworm (BAW) (Spodoptera exigua). The experiment in a line: Bioassay on Beet Armyworm (BAW), 128-well diet tray assay. The note with it: 168 h, Table ABC, 50 μg/cm^2 on artificial diet, second instar larvae, five to seven days, 25° C., read-out: BAW % Control (or Mortality) rating. The method, then: as §1
Bioassays on BAW were conducted using a 128-well diet tray assay. one to five second instar BAW larvae were placed in each well (3 mL) of the diet tray that had been previously filled with 1 mL of artificial diet to which 50 μg/cm^2 of the test compound (dissolved in 50 μL of 90:10 acetone-water mixture) had been applied (to each of eight wells) and then allowed to dry. Trays were covered with a clear self-adhesive cover, and held at 25° C., 14:10 light-dark for five to seven days. Percent mortality was recorded for the larvae in each well; activity in the eight wells was then averaged. The results are indicated in the tables entitled “Table ABC: Assay Results” and “Table ABCD: Assay Results” (See Table Section).

Data set [3] relates to Yellow Fever Mosquito (YFM) (Aedes aegypti). Kind of data set: Bioassay on Yellow Fever Mosquito (YFM) larvae, 96-well plate. Particulars: Table ABC; about 1 day-old larvae, master plate 4000 ppm in DMSO diluted, scored on mortality after 3 days. The method, then: Certain molecules disclosed in this document were tested against YFM using procedures described in the following paragraph. In the reporting of the results, the “GPA & YFM Rating Table” was used (See Table Section).
Master plates containing 400 μg of a molecule dissolved in 100 μL of dimethyl sulfoxide (DMSO) (equivalent to a 4000 ppm solution) are used. A master plate of assembled molecules contains 15 μL per well. To this plate, 135 μL of a 90:10 water:acetone mixture is added to each well. A robot (Biomek® NXP Laboratory Automation Workstation) is programmed to dispense 15 μL aspirations from the master plate into an empty 96-well shallow plate (“daughter” plate). There are 6 reps (“daughter” plates) created per master. The created daughter plates are then immediately infested with YFM larvae.
The day before plates are to be treated, mosquito eggs are placed in Millipore water containing liver powder to begin hatching (4 g. into 400 mL). After the daughter plates are created using the robot, they are infested with 220 μL of the liver powder/larval mosquito mixture (about 1 day-old larvae). After plates are infested with mosquito larvae, a non-evaporative lid is used to cover the plate to reduce drying. Plates are held at room temperature for 3 days prior to grading. After 3 days, each well is observed and scored based on mortality.

Each structure is given as a SMILES string.

As a reminder, the mortality is the share of the test organisms that died. With `COc1ccc(C(C)C)c(N2C(=O)CS/C2=N\C(=O)NC2Cc3ccc(-c4ncn(-c5ccc(OC(F)(F)F)cc5)n4)cc3C2)c1` (stereo not drawn) [P9, (Z)-1-(3-(2-Isopropyl-5-methoxyphenyl)-4-oxothiazolidin-2-ylidene)-3-(5-(1-(4-(trifluoromethoxy)phenyl)-1H-1,2,4-triazol-3-yl)-2,3-dihydro-1H-inden-2-yl)urea], the mortality at 50 µg/cm2 in data set [1] and in data set [2] was 50 to 100% throughout. Moreover, the “YFM % Control (or Mortality) rating” value in data set [3] was “A (80-100)”.
With `CC(C)c1cc(F)ccc1N1C(=O)CS/C1=N\C(=O)NC1Cc2ccc(-c3ncn(-c4ccc(OC(F)(F)F)cc4)n3)cc2C1` (stereo not drawn) [P10, (Z)-1-(3-(4-Fluoro-2-isopropylphenyl)-4-oxothiazolidin-2-ylidene)-3-(5-(1-(4-(trifluoromethoxy)phenyl)-1H-1,2,4-triazol-3-yl)-2,3-dihydro-1H-inden-2-yl)urea], the mortality at 50 µg/cm2 in data set [1] and in data set [2] was 50 to 100% each time. Also, the “YFM % Control (or Mortality) rating” value in data set [3] is given as “A (80-100)”.
As to `Cc1ccc(C(C)C)c(-n2c(C)cs/c2=N\C(=O)NC2Cc3ccc(-c4ncn(-c5ccc(OC(F)(F)F)cc5)n4)cc3C2)c1` (stereo not drawn) [P12, (Z)-1-(3-(2-Isopropyl-5-methylphenyl)-4-methylthiazol-2(3H)-ylidene)-3-(5-(1-(4-(trifluoromethoxy)phenyl)-1H-1,2,4-triazol-3-yl)-2,3-dihydro-1H-inden-2-yl)urea], the mortality at 50 µg/cm2 in data set [1] and in data set [2] was 50 to 100% throughout. For the same compound, the “YFM % Control (or Mortality) rating” value in data set [3] was “A (80-100)”.
`Cc1ccc(C(C)C)c(N2C(=O)C(C)S/C2=N\C(=O)NC2Cc3ccc(-c4ncn(-c5ccc(OC(F)(F)F)cc5)n4)cc3C2)c1` (stereo not drawn) [P13, (Z)-1-(3-(2-Isopropyl-5-methylphenyl)-5-methyl-4-oxothiazolidin-2-ylidene)-3-(5-(1-(4-(trifluoromethoxy)phenyl)-1H-1,2,4-triazol-3-yl)-2,3-dihydro-1H-inden-2-yl)urea]: the mortality at 50 µg/cm2 in data set [1] and in data set [2] was 50 to 100% throughout. Besides, the “YFM % Control (or Mortality) rating” value in data set [3] is reported as “B (More than 0-Less than 80)”.
Consider `Cc1ccc(C(C)C)c(N2CC(C)CS/C2=N\C(=O)NC2Cc3ccc(-c4ncn(-c5ccc(OC(F)(F)F)cc5)n4)cc3C2)c1` (stereo not drawn) [P18, (Z)-1-(3-(2-isopropyl-5-methylphenyl)-5-methyl-1,3-thiazinan-2-ylidene)-3-(5-(1-(4-(trifluoromethoxy)phenyl)-1H-1,2,4-triazol-3-yl)-2,3-dihydro-1H-inden-2-yl)urea], for which the mortality at 50 µg/cm2 in data set [1] and in data set [2] was 50 to 100% in each case. Moreover, in data set [3], the “YFM % Control (or Mortality) rating” value is given as “A (80-100)”.
Take `CC(C)c1ccccc1N1CCCS/C1=N\C(=O)NC1Cc2ccc(-c3ncn(-c4ccc(OC(F)(F)F)cc4)n3)cc2C1` (stereo not drawn) [P19, (Z)-1-(3-(2-Isopropylphenyl)-1,3-thiazinan-2-ylidene)-3-(5-(1-(4-(trifluoromethoxy)phenyl)-1H-1,2,4-triazol-3-yl)-2,3-dihydro-1H-inden-2-yl)urea]: the mortality at 50 µg/cm2 in data set [1] and in data set [2] was 50 to 100% throughout. Also, the “YFM % Control (or Mortality) rating” value in data set [3] is on record as “A (80-100)”.
For `Cc1ccc(C(C)C)c(N2CCCS/C2=N\C(=O)NC2Cc3ccc(-c4ncn(-c5ccc(OC(F)(F)F)cc5)n4)cc3C2)c1` (stereo not drawn) [P20, (Z)-1-(3-(2-Isopropyl-5-methylphenyl)-1,3-thiazinan-2-ylidene)-3-(5-(1-(4-(trifluoromethoxy)phenyl)-1H-1,2,4-triazol-3-yl)-2,3-dihydro-1H-inden-2-yl)urea], the mortality at 50 µg/cm2 in data set [1] and in data set [2] was 50 to 100% each time. In addition, in data set [3], the “YFM % Control (or Mortality) rating” value is reported as “A (80-100)”.
Take `Cc1ccc(C(C)C)c(NC(=S)NC(=O)NC2CCc3cc(-c4ncn(-c5ccc(OC(F)(F)F)cc5)n4)ccc3C2)c1` (stereo not drawn) [P21, 1-[(2-Isopropyl-5-methyl-phenyl)carbamothioyl]-3-[6-[1-[4-(trifluoromethoxy)phenyl]-1,2,4-triazol-3-yl]tetralin-2-yl]urea]: the mortality at 50 µg/cm2 in data set [1] and in data set [2] was 50 to 100% each time. Besides, the “YFM % Control (or Mortality) rating” value in data set [3] is listed as “A (80-100)”.
As for `CC(C)c1ccccc1NC(=S)NC(=O)NC1CCc2cc(-c3ncn(-c4ccc(OC(F)(F)F)cc4)n3)ccc2C1` (stereo not drawn) [P22, 1-[(2-Isopropylphenyl)carbamothioyl]-3-[6-[1-[4-(trifluoromethoxy)phenyl]-1,2,4-triazol-3-yl]tetralin-2-yl]urea], the mortality at 50 µg/cm2 in data set [1] and in data set [2] was 50 to 100% in each case. Besides, in data set [3], the “YFM % Control (or Mortality) rating” value is recorded as “A (80-100)”.
Regarding `CC(C)c1ccccc1N1C(=O)CS/C1=N\C(=O)NC1CCc2cc(-c3ncn(-c4ccc(OC(F)(F)F)cc4)n3)ccc2C1` (stereo not drawn) [P24, (Z)-1-(3-(2-Isopropylphenyl)-4-oxothiazolidin-2-ylidene)-3-(6-(1-(4-(trifluoromethoxy)phenyl)-1H-1,2,4-triazol-3-yl)-1,2,3,4-tetrahydronaphthalen-2-yl)urea], the mortality at 50 µg/cm2 in data set [1] and in data set [2] was 50 to 100% throughout. For the same compound, the “YFM % Control (or Mortality) rating” value in data set [3] is recorded as “A (80-100)”.
`Cc1ccc(C)c(NC(=S)NC(=O)NC2CCc3cc(-c4ncn(-c5ccc(OC(F)(F)F)cc5)n4)ccc3C2)c1` (stereo not drawn) [P25, 1-[(2,5-Dimethylphenyl)carbamothioyl]-3-[6-[1-[4-(trifluoromethoxy)phenyl]-1,2,4-triazol-3-yl]tetralin-2-yl]urea]: the mortality at 50 µg/cm2 in data set [1] and in data set [2] was 50 to 100% throughout. Besides, the “YFM % Control (or Mortality) rating” value in data set [3] was “A (80-100)”.
Consider `CC(C)c1ccc(Cl)cc1NC(=S)NC(=O)NC1CCc2cc(-c3ncn(-c4ccc(OC(F)(F)F)cc4)n3)ccc2C1` (stereo not drawn) [P26, 1-[(5-Chloro-2-isopropyl-phenyl)carbamothioyl]-3-[6-[1-[4-(trifluoromethoxy)phenyl]-1,2,4-triazol-3-yl]tetralin-2-yl]urea], for which the mortality at 50 µg/cm2 in data set [1] and in data set [2] was 50 to 100% each time. Moreover, the “YFM % Control (or Mortality) rating” value in data set [3] is given as “A (80-100)”.
With `CCCc1ccc(C)cc1NC(=S)NC(=O)NC1CCc2cc(-c3ncn(-c4ccc(OC(F)(F)F)cc4)n3)ccc2C1` (stereo not drawn) [P27, 1-[(5-Methyl-2-propyl-phenyl)carbamothioyl]-3-[6-[1-[4-(trifluoromethoxy)phenyl]-1,2,4-triazol-3-yl]tetralin-2-yl]urea], the mortality at 50 µg/cm2 in data set [1] and in data set [2] was 50 to 100% in each case. Moreover, in data set [3], the “YFM % Control (or Mortality) rating” value is “A (80-100)”.
As to `COc1ccc(NC(=S)NC(=O)NC2CCc3cc(-c4ncn(-c5ccc(OC(F)(F)F)cc5)n4)ccc3C2)c(C)c1` (stereo not drawn) [P28, 1-[(4-Methoxy-2-methyl-phenyl)carbamothioyl]-3-[6-[1-[4-(trifluoromethoxy)phenyl]-1,2,4-triazol-3-yl]tetralin-2-yl]urea], the mortality at 50 µg/cm2 in data set [1] and in data set [2] was 50 to 100% throughout. The “YFM % Control (or Mortality) rating” value in data set [3] is given as “A (80-100)”.
As to `CCc1cccc(C)c1NC(=S)NC(=O)NC1CCc2cc(-c3ncn(-c4ccc(OC(F)(F)F)cc4)n3)ccc2C1` (stereo not drawn) [P29, 1-[(2-Ethyl-6-methyl-phenyl)carbamothioyl]-3-[6-[1-[4-(trifluoromethoxy)phenyl]-1,2,4-triazol-3-yl]tetralin-2-yl]urea], the mortality at 50 µg/cm2 in data set [1] and in data set [2] was 50 to 100% in each case. Further, the “YFM % Control (or Mortality) rating” value in data set [3] is listed as “A (80-100)”.

For the origin of these results see patent US9469617B2, “Molecules having certain pesticidal utilities, and intermediates, compositions, and processes related thereto” (priority 2014, dated 2016).
